Values quoted from earlier work in patent publication US20030004143A1, “Use of NSAIDs for prevention and treatment of cellular abnormalities of the female reproductive tract” (priority 2001, published 2003).

Assays:
OPC cell lines = details: all OPC cell lines tested

With `O=C(c1ccccc1)c1ccc2n1CCC2C(=O)O` (stereo not shown) [ketorolac, (.+−.)5(benzoyl)-2,3-dihydro-1H-pyrrolizine-1carboxylic acid] as the molecule, how does the IL-6 levels (OPC cell lines) read?
The IL-6 levels was “continuously and significantly decreased”.

And the IL-8 levels (OPC cell lines)?
The IL-8 levels was “continuously and significantly decreased”.

And the PGE2 production (OPC cell lines)?
The PGE2 production was “continuously and significantly decreased”.

What about the “OPC growth in vivo” value (OPC) of the same molecule?
The value was “reduced OPC growth in vivo”.
